We go through 47 compounds from US8575197B2, “Pyrolinone derivative and pharmaceutical composition comprising the same” (Shionogi & Co., Ltd., priority 2008, dated 2013).

In this experiment the target is human P2X3 receptor (Homo sapiens (Human), UniProt P56373). As to the kind of experiment: P2X3 receptor inhibition, ATP-evoked Fluo-3 calcium fluorescence (FDSS 3000). It counts as cell-based. As to conditions: C6BU-1 cell transfected with human P2X3 receptor gene; ATP-evoked Fluo-3 fluorescence. The gist of the method: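 C6BU-1 cells stably transfected with human P2X3, loaded with 4 μM Fluo-3-AM for 1 h at 37 °C in HEPES buffer pH 7.5 with probenecid. Compound added 5 min before 40 nM ATP solution; fluorescence followed 3 min. IC50 from ratio of peak post-ATP to baseline fluorescence.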
Sequence of human P2X3 receptor (P56373 whole entry): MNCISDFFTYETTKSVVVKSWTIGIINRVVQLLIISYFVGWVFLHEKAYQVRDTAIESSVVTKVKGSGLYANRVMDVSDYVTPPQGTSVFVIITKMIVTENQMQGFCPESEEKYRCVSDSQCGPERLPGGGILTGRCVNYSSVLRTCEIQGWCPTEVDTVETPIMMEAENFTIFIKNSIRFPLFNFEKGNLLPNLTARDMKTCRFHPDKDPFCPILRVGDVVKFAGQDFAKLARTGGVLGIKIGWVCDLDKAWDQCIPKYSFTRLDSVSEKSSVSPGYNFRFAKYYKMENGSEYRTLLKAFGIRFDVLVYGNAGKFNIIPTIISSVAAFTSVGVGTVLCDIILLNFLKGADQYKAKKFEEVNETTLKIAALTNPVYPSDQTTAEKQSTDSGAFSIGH
As to `COC1=C(C(=O)CC(C)C)C(c2ccccc2OC)N(c2ccc(-c3ccc(C)s3)cc2)C1=O` (centres unmarked) [Compound I-329], the IC50 was found to be 0.578 µM.

Turning to `CC(C)CC(=O)C1=C(O)C(=O)N(c2ccc(-c3ccsc3)cc2)C1c1ccccc1OC(F)(F)F` (centres unmarked) [Compound I-330], the IC50 is 0.07 µM.

`COc1ccc(CC(=O)C2=C(O)C(=O)N(c3ccc(-c4noc(C)n4)cc3)C2C2CCCCC2)cc1` (centres unmarked) [Compound I-331]: the IC50 is 0.722 µM.

As to `COc1ncccc1C1C(C(=O)C(C)C)=C(O)C(=O)N1c1ccc(-c2ccc(C)s2)cc1` (centres unmarked) [Compound I-332], the IC50 was determined as 0.281 µM.

Take `Cc1ccc(-c2ccc(N3C(=O)C(O)=C(C(=O)C(C)C)C3c3ccccc3OC(F)F)cc2)s1` (centres unmarked) [Compound I-333]: the IC50 turned out to be 0.058 µM.

For the compound `Cc1ccc(-c2ccc(N3C(=O)C(O)=C(C(=O)C(C)C)C3c3ccccc3OC(F)(F)F)cc2)s1` (centres unmarked) [Compound I-334], the IC50 was 0.078 µM.

Regarding `COc1ncccc1C1C(C(=O)CC(C)C)=C(O)C(=O)N1c1ccc(-c2ccc(C)s2)cc1` (centres unmarked) [Compound I-336], the 50% inhibitory concentration (IC50) turned out to be 0.351 µM.

Regarding `Cc1ccc(-c2ccc(N3C(=O)C(O)=C(C(=O)CC(C)C)C3c3ccccc3OC(F)F)cc2)s1` (centres unmarked) [Compound I-337], the IC50 is 0.103 µM.

For the compound `Cc1ccc(-c2ccc(N3C(=O)C(O)=C(C(=O)CC(C)C)C3c3ccccc3OC(F)(F)F)cc2)s1` (centres unmarked) [Compound I-338], the IC50 was 0.147 µM.

For `COc1ccccc1C1C(C(=O)CC(C)C)=C(O)C(=O)N1c1ccc(-c2cc(C)no2)cc1` (centres unmarked) [Compound I-339], the IC50 was found to be 0.892 µM.

Turning to `COc1ncccc1C1C(C(=O)CC(C)C)=C(O)C(=O)N1c1ccc(-c2ccoc2)cc1` (centres unmarked) [Compound I-340], the IC50 is 0.336 µM.

For `Cc1cc(-c2ccc(N3C(=O)C(O)=C(C(=O)CC(C)C)C3c3ccccc3OC(F)F)cc2)on1` (centres unmarked) [Compound I-341], the IC50 worked out at 0.508 µM.

On to `CC(C)CC(=O)C1=C(O)C(=O)N(c2ccc(-c3ccoc3)cc2)C1c1ccccc1OC(F)F` (centres unmarked) [Compound I-342], for which the IC50 amounted to 0.067 µM.

With `CC(C)CC(=O)C1=C(O)C(=O)N(c2ccc(-c3ccoc3)cc2)C1c1ccccc1OC(F)(F)F` (centres unmarked) [Compound I-343], the IC50 is 0.078 µM.

For `Cc1cc(-c2ccc(N3C(=O)C(O)=C(C(=O)CC(C)C)C3c3ccccc3OC(F)(F)F)cc2)on1` (centres unmarked) [Compound I-344], the IC50 came out at 0.594 µM.

Consider `Cc1cc(-c2ccc(N3C(=O)C(O)=C(C(=O)CC(C)C)C3c3ccccc3OCCO)cc2)on1` (centres unmarked) [Compound I-345], for which the IC50 was determined as 0.999 µM.

On to `COCCOc1ccccc1C1C(C(=O)CC(C)C)=C(O)C(=O)N1c1ccc(-c2cc(C)no2)cc1` (centres unmarked) [Compound I-346], for which the IC50 came to 0.677 µM.

Consider `CCOc1ccccc1C1C(C(=O)CC(C)C)=C(O)C(=O)N1c1ccc(-c2ccoc2)cc1` (centres unmarked) [Compound I-347], for which the concentration for half-maximal inhibition (IC50) stood at 0.047 µM.

`COCCOc1ccccc1C1C(C(=O)CC(C)C)=C(O)C(=O)N1c1ccc(-c2ccoc2)cc1` (centres unmarked) [Compound I-348]: the IC50 is 0.055 µM.

Consider `COCOc1ccccc1C1C(C(=O)CC(C)C)=C(O)C(=O)N1c1ccc(-c2ccoc2)cc1` (centres unmarked) [Compound I-349], for which the IC50 was found to be 0.037 µM.

`CC(C)CC(=O)C1=C(O)C(=O)N(c2ccc(-c3ccoc3)cc2)C1c1ccccc1OCCO` (centres unmarked) [Compound I-350]: the IC50 came to 0.066 µM.

As to `COc1ccccc1C1C(C(=O)CC(C)C)=C(O)C(=O)N1c1ccc(-c2ccoc2)cc1` (centres unmarked) [Compound I-351], the IC50 worked out at 0.101 µM.

Regarding `COCc1ccccc1C1C(C(=O)C(C)C)=C(O)C(=O)N1c1ccc2c(c1)cc(C)n2C` (centres unmarked) [Compound I-353], the IC50 was 0.21 µM.

Consider `COCc1ccccc1C1C(C(=O)C(C)C)=C(O)C(=O)N1c1ccc(-c2ccco2)cc1` (centres unmarked) [Compound I-354], for which the IC50 came to 0.057 µM.

With `COCc1ccccc1C1C(C(=O)CC(C)C)=C(O)C(=O)N1c1ccc(-c2ccco2)cc1` (centres unmarked) [Compound I-355], the IC50 came out at 0.044 µM.

For `COCc1ccccc1[C@@H]1C(C(=O)CC(C)C)=C(O)C(=O)N1c1ccc(-c2ccsc2)cc1` [Compound I-356], the IC50 was determined as 0.007 µM.

For `COCCOc1ncccc1C1C(C(=O)C(C)C)=C(O)C(=O)N1c1ccc(-c2ccc(C)o2)cc1` (centres unmarked) [Compound I-357], the IC50 worked out at 0.02 µM.

With `Cc1ccc(-c2ccc(N3C(=O)C(O)=C(C(=O)C(C)C)C3c3ccccc3OC(F)F)cc2)o1` (centres unmarked) [Compound I-358], the IC50 is 0.025 µM.

Regarding `Cc1ccc(-c2ccc(N3C(=O)C(O)=C(C(=O)C(C)C)C3c3ccccc3OC(F)(F)F)cc2)o1` (centres unmarked) [Compound I-359], the IC50 came out at 0.024 µM.

For the compound `COCCOc1ncccc1C1C(C(=O)CC(C)C)=C(O)C(=O)N1c1ccc(-c2ccc(C)o2)cc1` (centres unmarked) [Compound I-360], the IC50 came to 0.021 µM.

For `Cc1ccc(-c2ccc(N3C(=O)C(O)=C(C(=O)CC(C)C)C3c3ccccc3OC(F)F)cc2)o1` (centres unmarked) [Compound I-361], the IC50 turned out to be 0.048 µM.

On to `Cc1ccc(-c2ccc(N3C(=O)C(O)=C(C(=O)CC(C)C)C3c3ccccc3OC(F)(F)F)cc2)o1` (centres unmarked) [Compound I-362], for which the IC50 stood at 0.04 µM.

Consider `COCCOc1cc(F)ccc1C1C(C(=O)C(C)C)=C(O)C(=O)N1c1ccc(-c2ccsc2)cc1` (centres unmarked) [Compound I-363], for which the IC50 turned out to be 0.007 µM.

For the compound `COCCOc1cc(F)ccc1C1C(C(=O)CC(C)C)=C(O)C(=O)N1c1ccc(-c2ccsc2)cc1` (centres unmarked) [Compound I-364], the IC50 was determined as 0.009 µM.

Turning to `COCCOc1cc(F)ccc1C1C(C(=O)CC(C)C)=C(O)C(=O)N1c1ccc(-c2noc(C)n2)cc1` (centres unmarked) [Compound I-365], the half-maximal inhibitory concentration (IC50) stood at 0.082 µM.

Regarding `CC(C)CC(=O)C1=C(O)C(=O)N(c2ccc(-c3ccsc3)cc2)C1c1ccccc1OCCCO` (centres unmarked) [Compound I-366], the IC50 turned out to be 0.013 µM.

For the compound `COCCOc1cc(F)ccc1C1C(C(=O)C(C)C)=C(O)C(=O)N1c1ccc(-c2ccoc2)cc1` (centres unmarked) [Compound I-367], the IC50 stood at 0.019 µM.

Take `COCCOc1cc(F)ccc1C1C(C(=O)CC(C)C)=C(O)C(=O)N1c1ccc(-c2ccoc2)cc1` (centres unmarked) [Compound I-368]: the IC50 was 0.016 µM.

Regarding `COCCOc1cc(F)ccc1C1C(C(=O)C(C)C)=C(O)C(=O)N1c1ccc(-c2noc(C)n2)cc1` (centres unmarked) [Compound I-369], the IC50 came out at 0.091 µM.

In the case of `Cc1cc(-c2ccc(N3C(=O)C(O)=C(C(=O)CC(C)C)C3c3ccccc3OC(C)C)cc2)on1` (centres unmarked) [Compound I-370], the IC50 is 0.194 µM.

In the case of `COc1ncccc1C1C(C(=O)CC(C)C)=C(O)C(=O)N1c1ccc(-c2csc(C)c2)cc1` (centres unmarked) [Compound I-371], the IC50 was determined as 0.447 µM.

In the case of `COCOc1ccccc1C1C(C(=O)CC(C)C)=C(O)C(=O)N1c1ccc(-c2csc(C)c2)cc1` (centres unmarked) [Compound I-372], the IC50 stood at 0.035 µM.

As to `Cc1cc(-c2ccc(N3C(=O)C(O)=C(C(=O)CC(C)C)C3c3ccccc3OC(C)C)cc2)cs1` (centres unmarked) [Compound I-373], the IC50 is 0.051 µM.

Turning to `Cc1cc(-c2ccc(N3C(=O)C(O)=C(C(=O)CC(C)C)C3c3ccccc3OCCO)cc2)cs1` (centres unmarked) [Compound I-374], the IC50 stood at 0.04 µM.

In the case of `COCCOc1ccccc1C1C(C(=O)CC(C)C)=C(O)C(=O)N1c1ccc(-c2csc(C)c2)cc1` (centres unmarked) [Compound I-375], the IC50 was 0.03 µM.

On to `COCc1ccccc1C1C(C(=O)CC(C)C)=C(O)C(=O)N1c1ccc(-c2csc(C)c2)cc1` (centres unmarked) [Compound I-376], for which the IC50 was found to be 0.025 µM.

Consider `Cc1cc(-c2ccc(N3C(=O)C(O)=C(C(=O)CC(C)C)C3c3ccccc3OC(F)F)cc2)cs1` (centres unmarked) [Compound I-377], for which the IC50 was determined as 0.148 µM.

As a reminder, the IC50 is the concentration that gives 50% inhibition.
